Here are results for three substances from patent publication US20170327556A1, “CARTILAGE-BINDING FUSION PROTEINS” (Merrimack Pharmaceuticals, Inc., priority 2013, published 2017).

The test system of this experiment is AKT phosphorylation in bovine chondrocytes. Nature of the experiment: Stimulation of AKT phosphorylation in primary bovine chondrocytes (pAKT ELISA). The experiment is classed as cell-based. As to conditions: 10 min stimulation, doses in M (Table 4), 6x-Histidine-tagged fusion proteins. As for the experimental part:
Fusion proteins comprising IGF-1 and a cartilage matrix binding domain were prepared as described above. Six fusion proteins were prepared: GF-Fus1 (6x-Histidine-tagged), GF-Fus2(6x-Histidine-tagged), GF-Fus3 (6x-Histidine-tagged), GF-Fus4 (6x-Histidine-tagged), GF-Fus5 (6x-Histidine-tagged), and GF-Fus6 (6x-Histidine-tagged). In order to ensure that the growth factor portion of the fusion protein was active in the fusion proteins, each construct was tested for its ability to stimulate AKT phosphorylation. Wild-type IGF-1 (wtIGF) was included as a control. Bovine chondrocytes were stimulated with a range of doses of each fusion protein, and pAKT levels were measured by ELISA.
Bovine chondrocytes are isolated from the femoral chondyles of 2-4 week old bovine calves. Knee joints are mounted by removing all tissue surrounding the femur, removing the femoral head with a bone saw or hack saw, and clamping in a tissue vice. Joints are aseptically opened, removing the patella, tibia and fibula. Using a scalpel, cartilage is sliced off the femoral chondyles and placed in sterile PBS (pH=7.4) containing penicillin-streptomycin (1×, Gibco 15140-122). PBS is subsequently removed and pronase solution (50 mL per 5 g of tissue), consisting of high glucose DMEM (Life Technologies Cat#11965-092), fetal bovine serum (10% v/v, Life Technologies Cat#16140071), HEPES (100 mM, Gibco 15630-080), non-essential amino acids (1×, Sigma M7145), penicillin-streptomycin (1×, Gibco 15140-122), proline (400 μM, Sigma P5607-256), Protease Type XIV (2 mg/mL, Sigma Cat# P5147), is added for 1 hour with stirring. After rinsing twice with sterile PBS (pH=7.4), collagenase solution (50 mL per 5 g of tissue), consisting of high glucose DMEM (Life Technologies Cat#11965-092), fetal bovine serum (10% v/v, Life Technologies Cat#16140071), HEPES (100 mM, Gibco 15630-080), NEAA(1×, Sigma M7145), Penicillin-Streptomycin (1×, Gibco 15140-122), 0.25 mg/mL Collagenase P (Roche Cat#11 249 002 001), is added for 18 hours with stirring. Cell are strained, washed, and resuspended in chondrocyte culture medium (low glucose DMEM (1× Gibco 11885-084), Penicillin-Streptomycin (1×, Gibco 15140-122), non-essential amino acids (1×, Sigma M7145), and HEPES (100 mM, Gibco 15630-080)) with fetal bovine serum (10% v/v, Life Technologies Cat#16140071).
For ligand stimulation, chondrocytes were seeded at 200,000 cells/well into 96-well tissue culture plates with 100 μL of chondrocyte culture medium with fetal bovine serum (10% v/v, Life Technologies Cat#16140071). […]
On the technique in general: In an ELISA, binding on a coated surface is turned into a signal by an enzyme label.
As for “GF-Fus1: IGF-1 variant polypeptide Long [R^3]-IGF-1, no fused binding domain; used 6x-Histidine-tagged as control [reference compound]”, the “logEC50 Mean” value was −9.227.
In the case of “wtIGF: Wild-type IGF-1 (R&D systems 291-G1), control [reference compound]”, the “logEC50 Mean” value is reported as −9.071.
Turning to “GF-Fus3: C-terminal fusion IGF-1(LR3)-PRELP heparin binding domain”, the “logEC50 Mean” value is −9.175.
